Reference: PMC8480901 (PLoS ONE, 2021)
Several values for one entry are separate records, joined by “and”; a condition that tells them apart may be missing. Equal values may be shown once.

System: J774.2 mouse macrophages
Experiment: LPS-induced cytokine and chemokine levels in J774.2 mouse macrophage cell supernatant (ELISA)
Type: cell-based
Details: for CXCL1 % reduction / CXCL1 [pg/mL] Mean / CXCL2 % reduction / CXCL2 [pg/mL] Mean / MMP9 % reduction / MMP9 [pg/mL] Mean: J774.2 cells; for CXCL1 % reduction / CXCL1 [pg/mL] Mean / CXCL2 % reduction / CXCL2 [pg/mL] Mean / MMP9 % reduction / MMP9 [pg/mL] Mean / CCl2, % reduction / CCl2, Mean / GM-CSF % reduction / GM-CSF Mean / IL-1β % reduction / IL-1β Mean / IL-6 % reduction / IL-6 Mean / TNF-α % reduction / TNF-α Mean / CCl2 / CXCL1 / GM-CSF / IL-1β / IL-6 / TNF-α: LPS; for CCl2, % reduction / CCl2, Mean / GM-CSF % reduction / GM-CSF Mean / IL-1β % reduction / IL-1β Mean / IL-6 % reduction / IL-6 Mean / TNF-α % reduction / TNF-α Mean / CCl2 / CXCL1 / GM-CSF / IL-1β / IL-6 / TNF-α: J774.2 supernatant; for CCl2 / CXCL1 / GM-CSF / IL-1β / IL-6 / TNF-α: individual replicate

For `C=C[C@]1(C)C[C@@H](OC(=O)CS[C@@H]2CC[C@@H](N)C[C@H]2O)[C@]2(C)[C@H](C)CC[C@]3(CCC(=O)[C@H]32)[C@@H](C)[C@@H]1O` [Lefamulin], the CXCL1 % reduction (compound 0.03 µM) was -4.29%, the “CXCL1 [pg/mL] Mean” value (compound 0.03 µM) was 27 pg/mL and the CXCL2 % reduction (compound 0.03 µM) was 3%. For the same compound, the “CXCL2 [pg/mL] Mean” value (compound 0.03 µM) was 31653 pg/mL, the MMP9 % reduction (compound 0.03 µM) was 2.7% and the “MMP9 [pg/mL] Mean” value (compound 0.03 µM) was 939 pg/mL. For the same compound, the CXCL1 % reduction (compound 0.1 µM) was 0.477%, the “CXCL1 [pg/mL] Mean” value (compound 0.1 µM) was 25 pg/mL and the CXCL2 % reduction (compound 0.1 µM) was 7%. For the same compound, the “CXCL2 [pg/mL] Mean” value (compound 0.1 µM) was 30382 pg/mL, the MMP9 % reduction (compound 0.1 µM) was 16% and the “MMP9 [pg/mL] Mean” value (compound 0.1 µM) was 819 pg/mL. For the same compound, the CXCL1 % reduction (compound 0.3 µM) was -4.29%, the “CXCL1 [pg/mL] Mean” value (compound 0.3 µM) was 27 pg/mL and the CXCL2 % reduction (compound 0.3 µM) was 0.626%. For the same compound, the “CXCL2 [pg/mL] Mean” value (compound 0.3 µM) was 32419 pg/mL, the MMP9 % reduction (compound 0.3 µM) was 14% and the “MMP9 [pg/mL] Mean” value (compound 0.3 µM) was 840 pg/mL. For the same compound, the CXCL1 % reduction (compound 1 µM) was -0.703%, the “CXCL1 [pg/mL] Mean” value (compound 1 µM) was 26 pg/mL and the CXCL2 % reduction (compound 1 µM) was -10%. The “CXCL2 [pg/mL] Mean” value (compound 1 µM) was 35898 pg/mL, the MMP9 % reduction (compound 1 µM) was 2.38% and the “MMP9 [pg/mL] Mean” value (compound 1 µM) was 942 pg/mL. The CXCL1 % reduction (compound 3 µM) was -7.61%, the “CXCL1 [pg/mL] Mean” value (compound 3 µM) was 28 pg/mL and the CXCL2 % reduction (compound 3 µM) was -7%. For the same compound, the “CXCL2 [pg/mL] Mean” value (compound 3 µM) was 34917 pg/mL, the MMP9 % reduction (compound 3 µM) was 7% and the “MMP9 [pg/mL] Mean” value (compound 3 µM) was 900 pg/mL. The CXCL1 % reduction (compound 10 µM) was -36%, the “CXCL1 [pg/mL] Mean” value (compound 10 µM) was 35 pg/mL and the CXCL2 % reduction (compound 10 µM) was -7%. For the same compound, the “CXCL2 [pg/mL] Mean” value (compound 10 µM) was 34821 pg/mL, the MMP9 % reduction (compound 10 µM) was 14% and the “MMP9 [pg/mL] Mean” value (compound 10 µM) was 838 pg/mL. The CXCL1 % reduction (compound 30 µM) was -238%, the “CXCL1 [pg/mL] Mean” value (compound 30 µM) was 87 pg/mL and the CXCL2 % reduction (compound 30 µM) was -16%. The “CXCL2 [pg/mL] Mean” value (compound 30 µM) was 37862 pg/mL, the MMP9 % reduction (compound 30 µM) was 60% and the “MMP9 [pg/mL] Mean” value (compound 30 µM) was 423 pg/mL. For the same compound, the CXCL1 % reduction (compound 100 µM) was -827%, the “CXCL1 [pg/mL] Mean” value (compound 100 µM) was 237 pg/mL and the CXCL2 % reduction (compound 100 µM) was -16%. For the same compound, the “CXCL2 [pg/mL] Mean” value (compound 100 µM) was 37744 pg/mL, the MMP9 % reduction (compound 100 µM) was 96% and the “MMP9 [pg/mL] Mean” value (compound 100 µM) was 91 pg/mL. For the same compound, the “IL-6 and IL-1β levels in supernatant” value (J774.2 macrophages) was “trend toward reduction”, the “levels of the measured LPS-induced cytokines, chemokines, or MMP-9 in supernatants” value (J774.2 mouse macrophages, concentrations tested (0.03 to 10 μM shown)) was “little to no reduction” and the CCl2, % reduction (0.03 µM) was 1.79%. For the same compound, the “CCl2, Mean” value (0.03 µM) was 35400 pg/mL, the GM-CSF % reduction (0.03 µM) was 52% and the “GM-CSF Mean” value (0.03 µM) was 672 pg/mL. The IL-1β % reduction (0.03 µM) was -26%, the “IL-1β Mean” value (0.03 µM) was 241 pg/mL and the IL-6 % reduction (0.03 µM) was -14%. For the same compound, the “IL-6 Mean” value (0.03 µM) was 88112 pg/mL, the TNF-α % reduction (0.03 µM) was -16% and the “TNF-α Mean” value (0.03 µM) was 1587 pg/mL. For the same compound, the CCl2 (0.03 µM) was 33453 pg/mL and 37346.9 pg/mL, the CXCL1 (0.03 µM) was 25.7 pg/mL and 27.7 pg/mL and the GM-CSF (0.03 µM) was 625.6 pg/mL and 719.3 pg/mL. For the same compound, the IL-1β (0.03 µM) was 233.691 pg/mL and 247.723 pg/mL, the IL-6 (0.03 µM) was 83483 pg/mL and 92741 pg/mL and the TNF-α (0.03 µM) was 1586.9 pg/mL and 1587.5 pg/mL. The CCl2, % reduction (0.1 µM) was 8%, the “CCl2, Mean” value (0.1 µM) was 33260 pg/mL and the GM-CSF % reduction (0.1 µM) was 50%. The “GM-CSF Mean” value (0.1 µM) was 691 pg/mL, the IL-1β % reduction (0.1 µM) was -10% and the “IL-1β Mean” value (0.1 µM) was 209 pg/mL. The IL-6 % reduction (0.1 µM) was -11%, the “IL-6 Mean” value (0.1 µM) was 85917 pg/mL and the TNF-α % reduction (0.1 µM) was -16%. For the same compound, the “TNF-α Mean” value (0.1 µM) was 1579 pg/mL, the CCl2 (0.1 µM) was 30882.1 pg/mL and 35637.1 pg/mL and the CXCL1 (0.1 µM) was 26.3 pg/mL and 24.7 pg/mL. The GM-CSF (0.1 µM) was 718.9 pg/mL and 663.8 pg/mL, the IL-1β (0.1 µM) was 208.032 pg/mL and 210.141 pg/mL and the IL-6 (0.1 µM) was 86925 pg/mL and 84909 pg/mL. For the same compound, the TNF-α (0.1 µM) was 1571.9 pg/mL and 1586.9 pg/mL, the CCl2, % reduction (0.3 µM) was 0.431% and the “CCl2, Mean” value (0.3 µM) was 35870 pg/mL. The GM-CSF % reduction (0.3 µM) was 54%, the “GM-CSF Mean” value (0.3 µM) was 647 pg/mL and the IL-1β % reduction (0.3 µM) was -6%. The “IL-1β Mean” value (0.3 µM) was 202 pg/mL, the IL-6 % reduction (0.3 µM) was -13% and the “IL-6 Mean” value (0.3 µM) was 87246 pg/mL. For the same compound, the TNF-α % reduction (0.3 µM) was -8.54%, the “TNF-α Mean” value (0.3 µM) was 1483 pg/mL and the CCl2 (0.3 µM) was 32973.5 pg/mL and 38766.3 pg/mL. The CXCL1 (0.3 µM) was 24.9 pg/mL and 28.5 pg/mL, the GM-CSF (0.3 µM) was 644.4 pg/mL and 648.8 pg/mL and the IL-1β (0.3 µM) was 202.166 pg/mL and 201.189 pg/mL. For the same compound, the IL-6 (0.3 µM) was 86199 pg/mL and 88294 pg/mL.
